Earlier results, collected in patent publication US8821944B1, “Polymorph compositions, methods of making, and uses thereof” (Edge Therapeutics, Inc., priority 2013, dated 2014).

Assays:
[1] = at +25° C. and +37° C.
[2] = at +25° C. and +37° C.; remark: listed apart in the source

COCCOC(=O)C1=C(C)NC(C)=C(C(=O)OC(C)C)C1c1cccc([N+](=O)[O-])c1 (centres unmarked) [Form II]
stability compared to Form I [1]: higher stability
solubility compared to Form I [2]: lower solubility
